Measured values reported in patent US10442833B1 (KING SAUD UNIVERSITY, priority 2018, dated 2019).
In brackets after ≈: the same amount, converted by molar mass.

Experiments:
[1] = tested on: Absidia corymbifera (RCMB 02564); test: Agar well diffusion, Absidia corymbifera; assay type: cell-based; settings: Reference Drug, 30 μg/mL; well diameter 6 mm; 37° C., 18 to 24 h
Procedure: (§1) Antimicrobial tests were carried out by agar well diffusion according to the National Committee for Clinical Laboratory Standards (NCCLS) criteria.
(§2) Bacterial and fungal suspensions were prepared at 0.5 McFarland standard turbulence in a volume of 100 μL and were cultivated on Mueller-Hinton agar and Sabouraud dextrose media punched with 6-mm diameter wells for the bacteria and fungi, respectively. Then, 100 μl of 10% tested sample was added to the wells, while 10% DMSO was used as the negative control. Ampicillin, gentamicin, and amphotericin B (30 μg/mL) were used as standard agents against the Gram-positive bacteria, Gram-negative bacteria, and fungi, respectively. After incubation of the plates at 37° C. for 18 to 24 h, the antimicrobial activity was evaluated by measuring the diameter of the inhibition zones. Each test was performed in triplicate and the average of the results was calculated. The extraction solvents were used as negative controls (NCCLS, 2002; 2004).

[2] = tested on: Geotricum candidum (RCMB 05007); test: Agar well diffusion, Geotricum candidum; assay type: cell-based; settings: Reference Drug, 30 μg/mL; well diameter 6 mm; 37° C., 18 to 24 h
Procedure: as §1, §2

[3] = tested on: Candida albicans (RCMB); test: Agar well diffusion, Candida albicans; assay type: cell-based; settings: Reference Drug, 30 μg/mL; well diameter 6 mm; 37° C., 18 to 24 h
Procedure: as §1, §2

[4] = tested on: Staphylococcus aureus (RCMB 010027); test: Agar well diffusion, Staphylococcus aureus; assay type: cell-based; settings: Reference Drug, 30 μg/mL; well diameter 6 mm; 37° C., 18 to 24 h; in mm
Procedure: (§3) Antimicrobial tests were carried out by agar well diffusion according to the National Committee for Clinical Laboratory Standards (NCCLS) criteria. […] Then, 100 μl of 10% tested sample was added to the wells, while 10% DMSO was used as the negative control. […] Each test was performed in triplicate and the average of the results was calculated. The extraction solvents were used as negative controls (NCCLS, 2002; 2004).

[5] = tested on: Staphylococcus epidermidis (RCMB 010024); test: Agar well diffusion, Staphylococcus epidermidis; assay type: cell-based; settings: Reference Drug, 30 μg/mL; well diameter 6 mm; 37° C., 18 to 24 h; in mm
Procedure: as §3

[6] = tested on: Streptococcus pyogenes (RCMB 010015); test: Agar well diffusion, Streptococcus pyogenes; assay type: cell-based; settings: Reference Drug, 30 μg/mL; well diameter 6 mm; 37° C., 18 to 24 h; in mm
Procedure: as §3

[7] = tested on: Hela cells; settings: reported by Al-Massarani et al., Molecules 2017; cited from earlier work
[8] = tested on: A549 cells; settings: reported by Al-Massarani et al., Molecules 2017; cited from earlier work
[9] = tested on: MDA (breast cancer cells); settings: reported by Al-Massarani et al., Molecules 2017; cited from earlier work
[10] = tested on: Proteous vulgaris (RCMB 010085); test: Agar well diffusion, Proteous vulgaris; assay type: cell-based; settings: Reference Drug, 30 μg/mL; well diameter 6 mm; 37° C., 18 to 24 h; in mm
Procedure: as §3

[11] = tested on: Klebsiella pneumoniae (RCMB 0010093); test: Agar well diffusion, Klebsiella pneumoniae; assay type: cell-based; settings: Reference Drug, 30 μg/mL; well diameter 6 mm; 37° C., 18 to 24 h; in mm
Procedure: as §3

[12] = tested on: Salmonella enteritidis (RCMB 010084); test: Agar well diffusion, Salmonella enteritidis; assay type: cell-based; settings: Reference Drug, 30 μg/mL; well diameter 6 mm; 37° C., 18 to 24 h; in mm
Procedure: as §3

Compound: C[C@@H]1[C@H](O)[C@@H](C)/C=C/C=C/C=C/C=C/C=C/C=C/C=C/[C@H](O[C@@H]2O[C@H](C)[C@@H](O)[C@H](N)[C@@H]2O)C[C@@H]2O[C@](O)(C[C@@H](O)C[C@@H](O)[C@H](O)CC[C@@H](O)C[C@@H](O)CC(=O)O[C@H]1C)C[C@H](O)[C@H]2C(=O)O [Amphotericin B]
- Zone of Inhibition [1]: 23.0
- Zone of Inhibition [2]: 27.0
- Zone of Inhibition [3]: 25.7

Compound: CC1(C)S[C@@H]2[C@H](NC(=O)[C@H](N)c3ccccc3)C(=O)N2[C@H]1C(=O)O [Ampicillin]
- Zone of Inhibition [4]: 27.3
- Zone of Inhibition [5]: 25.0
- Zone of Inhibition [6]: 26.3

Compound: C[C@H]1[C@H](C)CC[C@]2(C(=O)O)CC[C@]3(C)C(=CC[C@@H]4[C@@]5(C)CC[C@H](O)C(C)(C)[C@@H]5CC[C@]43C)[C@H]12 [ursolic acid]
- IC50 [7]: 50.2 µg/mL (≈ 110 µM)
- IC50 [8]: 65.2 µg/mL (≈ 143 µM)
- IC50 [9]: 47.76 µg/mL (≈ 105 µM)

Compound: Gentamycin
- Zone of Inhibition [10]: 23.4
- Zone of Inhibition [11]: 26.4
- Zone of Inhibition [12]: 25.2
